The text below walks through data of ChEMBL document CHEMBL5113452, “Synthesis and biological evaluation of hybrids from optically active ring-opened 3-N-butylphthalide derivatives and 4-fluro-edaravone as potential anti-acute ischemic stroke agents” (Bioorg Med Chem, 2022).

Each structure is given as a SMILES string. The source made the active and inactive calls. The calls are words filed in the database; no cut-off is given here.

Data set [1] in a line: Clearance in Sprague-Dawley rat plasma at 4.48 mg/kg, iv and measured upto 24 hrs in presence of 4-F-Eda by LC-MS/MS analysis. The class given is ADME, organism-based.
A short description of data set [2]: AUMC (0-t) in Sprague-Dawley rat plasma at 4.48 mg/kg, iv and measured upto 24 hrs in presence of 4-F-Eda by LC-MS/MS analysis. The format is ADME, organism-based. The settings on record: in vivo.
Data set [3] is described as follows: AUMC (0-infinity) in Sprague-Dawley rat plasma at 4.48 mg/kg, iv and measured upto 24 hrs by LC-MS/MS analysis. The format is ADME, organism-based. The settings on record: in vivo.
The nature of data set [4]: MRT in Sprague-Dawley rat plasma at 4.48 mg/kg, iv and measured upto 24 hrs in presence of 4-F-Eda by LC-MS/MS analysis. The format is ADME, organism-based.
Data set [5] in a line: Elimination rate constant in Sprague-Dawley rat plasma at 4.48 mg/kg, iv and measured upto 24 hrs in presence of 4-F-Eda by LC-MS/MS analysis. The format is ADME, organism-based.
Data set [6] in a line: Cmax in Sprague-Dawley rat plasma at 4.48 mg/kg, iv and measured upto 24 hrs in presence of 4-F-Eda by LC-MS/MS analysis. The format is ADME, organism-based. Further details: time < 24 hrs, dose 4.48 mg/kg, route iv.
Data set [7] can be described thus: Clearance in Sprague-Dawley rat plasma at 4.48 mg/kg, iv and measured upto 24 hrs by LC-MS/MS analysis. The format is ADME, organism-based.
Data set [8] in a line: C0 in Sprague-Dawley rat plasma at 4.48 mg/kg, iv and measured upto 24 hrs by LC-MS/MS analysis. The format is ADME, organism-based.
Data set [9] can be described thus: Cmax in Sprague-Dawley rat plasma at 4.48 mg/kg, iv and measured upto 24 hrs by LC-MS/MS analysis. Further details: dose 4.48 mg/kg, time < 24 hrs, route iv. The class given is ADME, organism-based.
The test system of data set [10] is Rattus norvegicus. As to the kind of experiment: Neuroprotective activity against transient middle cerebral artery occlusion induced cerebral infraction Sprague-Dawley rat model assessed as decrease in brain edema at 4.48 mg/kg, iv and measured after 24 hrs in presence of EDA. The format is functional, organism-based.
The nature of data set [11]: AUC (0-t) in Sprague-Dawley rat plasma at 4.48 mg/kg, iv and measured upto 24 hrs by LC-MS/MS analysis. The format is ADME, organism-based. Further details: time < 24 hrs, dose 4.48 mg/kg, route iv.
Data set [12] can be described thus: AUC (0-infinity) in Sprague-Dawley rat plasma at 4.48 mg/kg, iv and measured upto 24 hrs in presence of 4-F-Eda by LC-MS/MS analysis. Further details: dose 4.48 mg/kg, time < 24 hrs, route iv. The format is ADME, organism-based.
The nature of data set [13]: AUC (0-t) in Sprague-Dawley rat plasma at 4.48 mg/kg, iv and measured upto 24 hrs in presence of 4-F-Eda by LC-MS/MS analysis. The class given is ADME, organism-based. Further details: time < 24 hrs, dose 4.48 mg/kg, route iv.
A short description of data set [14]: Half life in Sprague-Dawley rat plasma at 4.48 mg/kg, iv and measured upto 24 hrs in presence of 4-F-Eda by LC-MS/MS analysis. The class given is ADME, organism-based.
Data set [15] is described as follows: AUC (0-infinity) in Sprague-Dawley rat plasma at 4.48 mg/kg, iv and measured upto 24 hrs by LC-MS/MS analysis. The format is ADME, organism-based. Further details: time < 24 hrs, dose 4.48 mg/kg, route iv.
A short description of data set [16]: Volume of distribution at steady state in Sprague-Dawley rat plasma at 4.48 mg/kg, iv and measured upto 24 hrs by LC-MS/MS analysis. The class given is ADME, organism-based. The settings on record: read-out: Vdss.
Data set [17] can be described thus: Toxicity in transient middle cerebral artery occlusion induced ischemia stroke Sprague-Dawley rat model assessed as change in body weight at 4.48 mg/kg, iv and measured after 24 hrs in presence of EDA. The class given is organism-based. The settings on record: in vivo.
A short description of data set [18]: MRT in Sprague-Dawley rat plasma at 4.48 mg/kg, iv and measured upto 24 hrs by LC-MS/MS analysis. The format is ADME, organism-based.
A short description of data set [19]: Elimination rate constant in Sprague-Dawley rat plasma at 4.48 mg/kg, iv and measured upto 24 hrs by LC-MS/MS analysis. The format is ADME, organism-based.
Data set [20] can be described thus: Half life in Sprague-Dawley rat plasma at 4.48 mg/kg, iv and measured upto 24 hrs by LC-MS/MS analysis. The class given is ADME, organism-based.
Data set [21] in a line: AUMC (0-infinity) in Sprague-Dawley rat plasma at 4.48 mg/kg, iv and measured upto 24 hrs in presence of 4-F-Eda by LC-MS/MS analysis. The class given is ADME, organism-based. The settings on record: in vivo.
Data set [22] is described as follows: C0 in Sprague-Dawley rat plasma at 4.48 mg/kg, iv and measured upto 24 hrs in presence of 4-F-Eda by LC-MS/MS analysis. The format is ADME, organism-based.
Data set [23] has as its system Rattus norvegicus. Kind of data set: Neuroprotective activity against transient middle cerebral artery occlusion induced cerebral infraction Sprague-Dawley rat model assessed as decrease in cerebral infraction volume at 4.48 mg/kg, iv and measured after 24 hrs in presence of EDA by TTC staining based assay. Further details: scale not given: the % may be the effect or the level left. The format is functional.

Data set [24] in a line: AUMC (0-t) in Sprague-Dawley rat plasma at 4.48 mg/kg, iv and measured upto 24 hrs by LC-MS/MS analysis. The class given is ADME, organism-based. The settings on record: in vivo.
Data set [25] relates to Rattus norvegicus. As to the kind of experiment: Neuroprotective activity against transient middle cerebral artery occlusion induced ischemia stroke Sprague-Dawley rat model assessed as increase in neuro-fucntional score at 4.48 mg/kg, iv and measured after 24 hrs in presence of Eda by longa's method. The format is functional, organism-based.
Data set [26] in a line: Volume of distribution at steady state in Sprague-Dawley rat plasma at 4.48 mg/kg, iv and measured upto 24 hrs in presence of 4-F-Eda by LC-MS/MS analysis. The class given is ADME, organism-based. The settings on record: read-out: Vdss.
The subject of data set [27] is Rattus norvegicus. Kind of data set: Neuroprotective activity against transient middle cerebral artery occlusion induced ischemia stroke Sprague-Dawley rat model assessed as increase in neuro-fucntional score at 10 mg/kg, iv and measured after 24 hrs by longa's method. The format is functional, organism-based.
Data set [28] in a line: Toxicity in transient middle cerebral artery occlusion induced ischemia stroke Sprague-Dawley rat model assessed as change in body weight at 10 mg/kg, iv and measured after 24 hrs. The format is organism-based. The settings on record: in vivo.
The test system of data set [29] is Rattus norvegicus. Kind of data set: Neuroprotective activity against transient middle cerebral artery occlusion induced cerebral infraction Sprague-Dawley rat model assessed as decrease in brain edema at 10 mg/kg, iv and measured after 24 hrs. The format is functional.
The test system of data set [30] is Rattus norvegicus. Kind of data set: Neuroprotective activity against transient middle cerebral artery occlusion induced cerebral infraction Sprague-Dawley rat model assessed as decrease in cerebral infraction volume at 10 mg/kg, iv and measured after 24 hrs by TTC staining based assay. Further details: scale not given: the % may be the effect or the level left. The class given is functional.

Data set [31] can be described thus: Toxicity in transient middle cerebral artery occlusion induced ischemia stroke Sprague-Dawley rat model assessed as change in body weight at 5.90 mg/kg, iv and measured after 24 hrs in presence of 4-F-Eda. The format is organism-based. The settings on record: in vivo, 5.9 mg/kg.
In data set [32] the test system is Rattus norvegicus. Kind of data set: Neuroprotective activity against transient middle cerebral artery occlusion induced ischemia stroke Sprague-Dawley rat model assessed as increase in neuro-fucntional score at 5.9 mg/kg, iv and measured after 24 hrs in presence of 4-F-Eda by longa's method. The format is functional, organism-based.
Data set [33] is described as follows: Toxicity in transient middle cerebral artery occlusion induced ischemia stroke Sprague-Dawley rat model assessed as change in body weight at 5.90 mg/kg, iv and measured after 24 hrs. The class given is organism-based. The settings on record: in vivo, 5.9 mg/kg.
Data set [34] deals with Rattus norvegicus. As to the kind of experiment: Neuroprotective activity against transient middle cerebral artery occlusion induced cerebral infraction Sprague-Dawley rat model assessed as decrease in cerebral infraction volume at 5.9 mg/kg, iv and measured after 24 hrs in presence of 4-F-Eda by TTC staining based assay. The format is functional. Further details: scale not given: the % may be the effect or the level left.

Data set [35] relates to Rattus norvegicus. Kind of data set: Neuroprotective activity against transient middle cerebral artery occlusion induced cerebral infraction Sprague-Dawley rat model assessed as decrease in brain edema at 5.9 mg/kg, iv and measured after 24 hrs in presence of 4-F-Eda. The format is functional, organism-based.
The test system of data set [36] is Rattus norvegicus. Kind of data set: Neuroprotective activity against transient middle cerebral artery occlusion induced ischemia stroke Sprague-Dawley rat model assessed as increase in neuro-fucntional score at 5.9 mg/kg, iv and measured after 24 hrs by longa's method. The class given is functional, organism-based.
Data set [37] has as its system Rattus norvegicus. As to the kind of experiment: Neuroprotective activity against transient middle cerebral artery occlusion induced cerebral infraction Sprague-Dawley rat model assessed as decrease in cerebral infraction volume at 5.9 mg/kg, iv and measured after 24 hrs by TTC staining based assay. The class given is functional. Further details: scale not given: the % may be the effect or the level left.

Data set [38] relates to Rattus norvegicus. Kind of data set: Neuroprotective activity against transient middle cerebral artery occlusion induced cerebral ischemia Sprague-Dawley rat model assessed as decrease in infract volume at 140 mg/kg, po and measured after 24 hrs by TTC staining based assay. The format is functional. Further details: scale not given: the % may be the effect or the level left.

Data set [39] relates to Rattus norvegicus. Kind of data set: Neuroprotective activity against transient middle cerebral artery occlusion induced cerebral ischemia Sprague-Dawley rat model assessed as decrease in infract volume at 70 mg/kg, po and measured after 24 hrs by TTC staining based assay. The class given is functional. Further details: scale not given: the % may be the effect or the level left.

For the molecule `CCCC[C@@H]1OC(=O)c2ccccc21` [(3S)-BUTYLPHTHALIDE], the clearance in data set [1] is 26.3 mL/min/kg; in data set [7], 51.1 mL/min/kg. Further, the values for the AUMCt in data set [2] and in [24] were 3819 hr.hr.ng/ml and 943 hr.hr.ng/ml, respectively. In addition, the results for the AUMC in data set [3] and in data set [21] were 998 hr.hr.ng/ml and 5006 hr.hr.ng/ml, respectively. Also, the values for the MRT in [4] and in data set [18] were 1.74 h and 40.7 min, respectively. Also, the k el at 24 h was 4.06e-05 s⁻¹ in [5] and 0.000202 s⁻¹ in data set [19]. The Cmax in data set [6] was 6920 ng/mL; in data set [9], 3290 ng/mL. Further, the C0 at 24 h is 5310 ng/mL in [8] and 13000 ng/mL in data set [22]. Also, the outcome in [10] and in data set [25] was Active. The AUC(0-t) at 24 h in data set [11] was found to be 1470 ng·h/mL; in data set [13], 2840 ng·h/mL. The AUC(0-inf) in data set [12] is 2870 ng·h/mL; in [15], 1480 ng·h/mL. Also, the figures for the half-life in data set [14] and in [20] were 303 min and 58.2 min, respectively. Besides, the Vd came to 2.08 L/kg in data set [16] and 2.73 L/kg in data set [26]. In addition, the Activity result was “Non-Toxic” in data set [17] and 57.7% in [23].

On to `CCCC[C@@H](OC(C)=O)c1ccccc1C(=O)Oc1cc(C)nn1-c1ccc(F)cc1`, for which the result in [27] and in [29] was Active. Also, the Activity entry is recorded as “Non-Toxic” in data set [28] and 67.56% in data set [30].

Take `CCCC[C@H](OC(C)=O)c1ccccc1C(=O)O`: the Activity entry in [31] was “Non-Toxic”; in [33], “Non-Toxic”; in data set [34], 68.37%; in [37], 12.67%. Besides, the outcome in data set [32], in data set [35] and in data set [36] was Active.

As for `CCCCC(OC(C)=O)c1ccccc1C(=O)Oc1cc(C)nn1-c1ccc(F)cc1` (racemic), the outcome in [27] was Active. In addition, the Activity is 61.77% in [38], “Non-Toxic” in data set [28], 66.89% in data set [30] and 52.8% in [39].
